According to patent US5527773A, “Use of synthetic peptides to disrupt the cytoskeleton” (United States of America, priority 1993, dated 1996):

What was measured:
[1] = tested on: keratin and vimentin/desmin IF networks in PtK2, BHK21 and mouse 3T3 fibroblasts; assay: Microinjection of the 1A peptide into cells, indirect immunofluorescence and confocal microscopy; type: cell-based, kangaroo rat, baby hamster
Procedure: The synthetic peptide corresponding to the keratin 1 chain 1A region (SEQ ID NO: 2) was microinjected into PtK2, BHK21 and mouse 3T3 fibroblasts according to the procedure of Vikstrom et al. (Proc. Natl. Acad. Sci. U.S.A., (1989) 86: 549-553; Methods Enzymol., (1991) 176: 506-525). BHK-21 cells contain type III filaments composed of vimentin and desmin, while 3T3 cells contain only vimentin. PtK2 cells contain mainly keratin. Briefly, peptides in 20 mM Tris-HCl. pH 8.5, 0.17M NaCl, 3 mM KCl were clarified by centrifugation for 30 min at 100,000×g immediately prior to microinjection. Protein concentrations in samples were determined by the method of Bradford (Anal. Biochem., 72: 248-254 (1976)). Micropipettes (W-P instruments) were prepared on a micropipette puller (Industrial Science Associates). Microinjections were monitored with a Leitz Diavert phase-contrast microscope fitted with a Leitz micromanipulator according to standard techniques (Graessmann and Graessmann, (1976) Proc. Natl. Acad. Sci. U.S.A., 73: 366-370; Kreis and Birchmeier, (1982) Int. Rev. Cytol., 75: 209-227).
(§1) Microinjected cells were prepared for indirect immunofluorescence and confocal microscopy as described (Yang et al., (1985) J. Cell Biol., 100: 620-631). IF disassembly was assessed by immunofluorescence using antibodies against IFs. […] At 1 mg/ml peptide, cells rounded up completely within 30 min, respreading and regaining their shape after a few hours. […] The rounded-up cells contained spots of fluorescence indicating a rather complete disruption of IF structure. Recovery occurred within 3-4 hours indicating a need to maintain a constant supply of peptide to maintain the disassembled state of the IF network. The 1A peptide was soluble at 5-10 mg/ml, although higher concentrations may also be obtainable.

preformed keratin IFs = assay: Disassembly of preformed keratin IFs by synthetic peptides (light scattering, electron microscopy); type: biochemical, human
Procedure: In vitro filament assembly assays (1-1.5 mg/ml) were performed by dialysis for 2 hours each into decreasing concentrations of urea (6, 4, 2, 1 and 0M) containing 5 mM Tris-HCl, pH 7.6, 1 mM EDTA, 1 mM dithiothreitol. […]. Light scattering was measured at 310 nm in a Beckman DU65 spectrophotometer. Synthetic peptides (1-30 μl of a 0.5-2 mg/ml solution) were added to 1 ml samples of keratin filaments, incubated at 37° C., and filament assembly was measured by light scattering. […] Samples of these reactions were also collected for visualization by electron microscopy and stopped by negative staining with freshly-prepared 0.7% uranyl acetate.
Peptides corresponding to the H1, beginning of 1A, and full-length 1A regions (SEQ ID NO: 1-3) of the human keratin 1 chain were individually mixed with preformed keratin IFs in vitro at a 1:1 molar ratio.

[2] = Solubility of the peptide; type: physicochemical
Procedure: as §1

Substance: 1A*: the first 18 amino acids of SEQ ID NO: 2 (1A peptide) (REQIKSLNNQFASFIDKV)
- IF structure by immunofluorescence during rounding ([1]; 1 mg/ml peptide): disorganized arrays of IFs
- time to complete rounding up of cells ([1]; 1 mg/ml peptide): ≤ 30 min
- alteration of IF networks ([1]; 2-5 mg/ml peptide): very significant alterations in both the keratin and vimentin/desmin IF networks
- time to recovery ([1]; 2-5 mg/ml peptide): 3 to 4 h
- overall cell shape ([1]; about 0.5 mg/ml peptide microinjected, after 15-20 min): altered slightly due to the partial rounding up
- overall IF structure by immunofluorescence ([1]; about 0.5 mg/ml peptide, 30 min post-injection): no significant changes in overall IF structure
- reversibility of disassembly (preformed keratin IFs; 1:1 molar ratio): reversible upon removal of the peptide
- time to disassembly of preformed IFs down to single coiled-coil molecules (preformed keratin IFs; 1:1 molar ratio peptide to preformed keratin IFs, light scattering and electron microscopy): ≤ 30 min
- solubility [2]: 5 to 10 mg/mL
